Tests used:
[1] = system: saphenous artery rings; assay: Vasorelaxant effect in vitro (phenylephrine-contracted artery rings); type: cell-based, Rabbits; conditions: Oryctolagus cuniculus; rabbit saphenous artery rings, contraction induced by phenylephrine
Experimental: Rabbits are anesthetized and sacrificed by intravenous injection of thiopental sodium (about 50 mg/kg) and exsanguinated. The saphenous artery is removed and divided into rings 3 mm wide. The rings are mounted singly on in each case a pair of triangular hooks open at the end and made of 0.3 mm-thick special wire (Remanium®). Each ring is placed under an initial tension in 5 ml organ baths with Krebs-Henseleit solution which is at 37° C., is gassed with 95% O2/5% CO2 and has the following composition: NaCl 119 mM; KCl 4.8 mM; CaCl2×2H2O 1 mM; MgSO4×7H2O 1.4 mM; KH2PO4 1.2 mM; NaHCO3 25 mM; glucose 10 mM; bovine serum albumin 0.001%. The force of contraction is detected with Statham UC2 cells, amplified and digitized via A/D converters (DAS-1802 HC, Keithley Instruments, Munich) and recorded in parallel on chart recorders. Contractions are induced by addition of phenylephrine.
After several (generally 4) control cycles, the substance to be investigated is added in each further run in increasing dosage, and the height of the contraction achieved under the influence of the test substance is compared with the height of the contraction reached in the last preceding run. The concentration necessary to reduce the contraction reached in the preceding control by 50% is calculated from this (IC50). The standard application volume is 5 μl. […]

[2] = molecular target: T1, Heme-containing sGC (recombinant soluble guanylate cyclase) (Rattus norvegicus, UniProt P20595); assay: Stimulation of recombinant soluble guanylate cyclase (sGC) in vitro, heme-containing enzyme; type: biochemical
T1 construct: made in house
T1 sequence (P20595 1-619): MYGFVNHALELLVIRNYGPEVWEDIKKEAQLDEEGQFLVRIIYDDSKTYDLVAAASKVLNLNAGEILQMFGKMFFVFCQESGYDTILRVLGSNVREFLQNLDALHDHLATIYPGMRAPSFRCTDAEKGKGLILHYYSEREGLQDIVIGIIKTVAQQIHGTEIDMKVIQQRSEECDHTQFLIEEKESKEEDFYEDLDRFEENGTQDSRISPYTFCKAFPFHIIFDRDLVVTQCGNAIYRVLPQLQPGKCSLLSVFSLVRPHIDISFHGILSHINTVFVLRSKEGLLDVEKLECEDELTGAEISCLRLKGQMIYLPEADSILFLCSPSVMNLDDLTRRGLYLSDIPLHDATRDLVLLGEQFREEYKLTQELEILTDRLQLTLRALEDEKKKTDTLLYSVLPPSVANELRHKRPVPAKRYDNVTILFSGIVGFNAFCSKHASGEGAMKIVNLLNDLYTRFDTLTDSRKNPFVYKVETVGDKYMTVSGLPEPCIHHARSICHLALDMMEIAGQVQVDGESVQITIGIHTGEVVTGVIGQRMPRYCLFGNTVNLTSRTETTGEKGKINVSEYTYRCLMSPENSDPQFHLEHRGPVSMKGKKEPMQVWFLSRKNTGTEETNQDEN
T1 sequence (P19686 1-690 partner): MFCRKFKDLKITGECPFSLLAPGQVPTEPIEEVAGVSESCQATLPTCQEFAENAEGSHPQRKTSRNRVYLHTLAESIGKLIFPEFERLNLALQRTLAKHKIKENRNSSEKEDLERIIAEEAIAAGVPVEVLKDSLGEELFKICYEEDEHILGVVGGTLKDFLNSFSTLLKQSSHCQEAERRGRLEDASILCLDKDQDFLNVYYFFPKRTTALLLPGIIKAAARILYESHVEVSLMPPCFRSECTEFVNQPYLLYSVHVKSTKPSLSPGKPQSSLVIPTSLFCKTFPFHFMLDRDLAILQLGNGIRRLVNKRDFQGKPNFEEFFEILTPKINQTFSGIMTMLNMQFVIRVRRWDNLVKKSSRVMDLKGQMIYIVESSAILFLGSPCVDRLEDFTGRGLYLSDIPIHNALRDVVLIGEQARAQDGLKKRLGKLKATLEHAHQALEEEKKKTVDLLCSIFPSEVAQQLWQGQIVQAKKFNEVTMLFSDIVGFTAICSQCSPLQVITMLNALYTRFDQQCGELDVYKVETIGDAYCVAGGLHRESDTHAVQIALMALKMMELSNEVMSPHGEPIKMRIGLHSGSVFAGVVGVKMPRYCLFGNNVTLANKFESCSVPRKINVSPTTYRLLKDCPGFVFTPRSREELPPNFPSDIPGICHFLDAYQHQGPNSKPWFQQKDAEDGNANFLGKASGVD
Excerpt: Hoenicka, E. M. Becker, H. Apeler, T. Sirichoke, H. Schroeder, R. Gerzer and J.-P. Stasch, “Purified soluble guanylyl cyclase expressed in a baculovirus/Sf9 system: Stimulation by YC-1, nitric oxide, and carbon oxide”, J. Mol. Med. 77 (1999), 14-23. The heme-free guanylate cyclase is obtained by adding Tween 20 to the sample buffer (0.5% in the final concentration).
(§1) The activation of sGC by a test substance is reported as n-fold stimulation of the basal activity.

[3] = molecular target: T2, Heme-free sGC (recombinant soluble guanylate cyclase) (Rattus norvegicus, UniProt P20595); assay: Stimulation of recombinant soluble guanylate cyclase (sGC) in vitro, heme-free enzyme; type: biochemical
T2 construct: made in house
T2 sequence (P20595 1-619): T1 sequence (P20595 1-619)
T2 sequence (P19686 1-690 partner): T1 sequence (P19686 1-690 partner)
Experimental: Investigations on the stimulation of recombinant soluble guanylate cyclase (sGC) by the compounds according to the invention with and without sodium nitroprusside, and with and without the heme-dependent sGC inhibitor 1H-1,2,4-oxadiazole-(4,3a)-quinoxalin-1-one (ODQ) are carried out by the method described in detail in the following reference: M. Hoenicka, E. M. Becker, H. Apeler, T. Sirichoke, H. Schroeder, R. Gerzer and J.-P. Stasch, “Purified soluble guanylyl cyclase expressed in a baculovirus/Sf9 system: Stimulation by YC-1, nitric oxide, and […]”, J. Mol. Med. 77 (1999), 14-23. The heme-free guanylate cyclase is obtained by adding Tween 20 to the sample buffer (0.5% in the final concentration).
as §1

Q: For O=C(O)c1ccc(CCC(/C=C/c2cc(F)ccc2OCc2ccc(C(F)(F)F)cc2)CCc2ccc(C(=O)O)cc2)cc1 [Example 1, 4-[(4E)-3-[2-(4-Carboxyphenyl)ethyl]-5-(5-fluoro-2-{[4-(trifluoromethyl)benzyl]oxy}phenyl)pent-4-en-1-yl]benzoic acid], which IC50 [1] is on record?
A: 250 nM

Q: What about the “Stimulation (n-fold) heme-containing sGC, +0.1 μM DEA/NO” value ([2]; 0.01 μM Example 1) of the same compound?
A: 24.1 n-fold

Q: And the “Stimulation (n-fold) heme-containing sGC, +10 μM ODQ” value ([2]; 0.01 μM Example 1)?
A: 7.0 n-fold

Q: What about the “Stimulation (n-fold) heme-containing sGC, basal” value ([2]; 0.01 μM Example 1) of the same compound?
A: 1.3 n-fold

Q: And the “Stimulation (n-fold) heme-containing sGC, +0.1 μM DEA/NO” value ([2]; 0.1 μM Example 1)?
A: 25.5 n-fold

Q: And the “Stimulation (n-fold) heme-containing sGC, +10 μM ODQ” value ([2]; 0.1 μM Example 1)?
A: 16.2 n-fold

Q: What about the “Stimulation (n-fold) heme-containing sGC, basal” value ([2]; 0.1 μM Example 1) of the same compound?
A: 1.9 n-fold

Q: And the “Stimulation (n-fold) heme-containing sGC, +0.1 μM DEA/NO” value ([2]; 1 μM Example 1)?
A: 33.4 n-fold

Q: What about the “Stimulation (n-fold) heme-containing sGC, +10 μM ODQ” value ([2]; 1 μM Example 1) of the same compound?
A: 60.6 n-fold

Q: What about the “Stimulation (n-fold) heme-containing sGC, basal” value ([2]; 1 μM Example 1) of the same compound?
A: 6.4 n-fold

Q: What about the “Stimulation (n-fold) heme-containing sGC, +0.1 μM DEA/NO” value ([2]; 10 μM Example 1) of the same compound?
A: 41.5 n-fold

Q: And the “Stimulation (n-fold) heme-containing sGC, +10 μM ODQ” value ([2]; 10 μM Example 1)?
A: 92.2 n-fold

Q: And the “Stimulation (n-fold) heme-containing sGC, basal” value ([2]; 10 μM Example 1)?
A: 11.0 n-fold

Q: What about the “Synergy with the NO donor DEA/NO on sGC stimulation” value ([2]; combination of Example 1 and DEA/NO) of the same compound?
A: no synergistic effect

Q: What about the “Stimulation (n-fold) heme-free sGC, basal” value ([3]; 0.01 μM Example 1, heme-free by 0.5% Tween 20) of the same compound?
A: 1.0 n-fold

Q: What about the “Stimulation (n-fold) heme-free sGC, basal” value ([3]; 0.1 μM Example 1, heme-free by 0.5% Tween 20) of the same compound?
A: 2.3 n-fold

Q: What about the “Stimulation (n-fold) heme-free sGC, basal” value ([3]; 1 μM Example 1, heme-free by 0.5% Tween 20) of the same compound?
A: 9.1 n-fold

Q: What about the “Stimulation (n-fold) heme-free sGC, basal” value ([3]; 10 μM Example 1, heme-free by 0.5% Tween 20) of the same compound?
A: 16.7 n-fold

Source: US7985876B2, “Substituted dibenzoic acid derivatives and use thereof” (Bayer Schering Pharma Aktiengesellschaft, priority 2007, dated 2011)
